In patent US20230219904A1 (SYNGENTA CROP PROTECTION AG, priority 2020, published 2023):

Columns and labels:
Assay type in all cases: in vivo
Setaria faberi (SETFA) [1] = assay: Pre-emergence herbicidal glasshouse test (Table B1); settings: evaluated after 13 days
How it was run: (§1)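 In this pot assay, seedlings or sown soil receive a spray of formulated active ingredient (acetone/water 50:50, 0.5% Tween 20) at 500 g/h unless indicated. Conditions: 24/16° C day/night, 14 hours light, 65% humidity, watering twice daily. Injury is scored after 13 days, 1 (0-19%) to 5 (80-100%).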

[2] = system: Amaranthus retoflexus (AMARE); assay: as above; settings: evaluated after 13 days
How it was run: as §1

[3] = system: Ipomoea hederacea (IPOHE); assay: as above; settings: evaluated after 13 days
How it was run: as §1

[4] = system: Echinochloa crus-galh (ECHCG); assay: as above; settings: evaluated after 13 days
How it was run: as §1

[5] = system: Abutilon theophrasti (ABUTH); assay: as above; settings: evaluated after 13 days
How it was run: as §1

BROTE (Bromus tectorum) = assay: Comparative test, PRE application (Table B2); settings: evaluated after 14 days
Procedure: (§2) TABLE B2—COMPARATIVE TEST
(§3) Seeds of test species were sown in standard soil in pots. After cultivation for one day under controlled conditions in a glasshouse (at 24/16° C., day/night; 14 hours light; 65% humidity), the plants were sprayed with an aqueous spray solution derived from the formulation of the technical active ingredient in 0.6 ml acetone and 45 ml formulation solution containing 10.6% Emulsogen EL (Registry number 61791-12-6), 42.2% N-methyl pyrrolidone, 42.2% dipropylene glycol monomethyl ether (CAS RN 34590-94-8) and 0.2% X-77 (CAS RN 11097-66-8). The test plants were then grown in a glasshouse under controlled conditions in a glasshouse (at 24/16° C., day/night; 14 hours light; 65% humidity) and watered twice daily. After 14 days, the test was evaluated (100=total damage to plant; 0=no damage to plant).
(§4) Test species: ABUTH (Abutilon theophrasti); BRO′I′L (Bromus tectorum); ECHCG (Echinochloa crus-galli); SINAR (Sinapis arvensis).

[6] = system: ABUTH (Abutilon theophrasti); assay: Comparative test, PRE application (Table B2); settings: evaluated after 14 days
Procedure: as §2, §3, §4

[7] = system: ECHCG (Echinochloa crus-galli); assay: Comparative test, PRE application (Table B2); settings: evaluated after 14 days
Procedure: as §2, §3, §4

SINAR (Sinapis arvensis) = assay: Comparative test, PRE application (Table B2); settings: evaluated after 14 days
Procedure: as §2, §3, §4

Setaria faberi (SETFA) [8] = assay: Post-emergence herbicidal glasshouse test (Table B1); settings: evaluated after 13 days
How it was run: as §1

[9] = system: Amaranthus retoflexus (AMARE); assay: as above; settings: evaluated after 13 days
How it was run: as §1

[10] = system: Ipomoea hederacea (IPOHE); assay: as above; settings: evaluated after 13 days
How it was run: as §1

[11] = system: Echinochloa crus-galh (ECHCG); assay: as above; settings: evaluated after 13 days
How it was run: as §1

[12] = system: Abutilon theophrasti (ABUTH); assay: as above; settings: applied at 500 g/h, evaluated after 13 days
How it was run: as §1

With `CCC(=O)Nc1c(OC(F)(F)F)ccc(C(=O)Nc2nnnn2C)c1Cl` [Compound 1.007, 2-chloro-N-(1-methyltetrazol-5-yl)-3-(propanoylamino)-4-(trifluoromethoxy)benzamide] the “PRE Application SETFA, percentage damage on five-point scale” value (shortened to “PRE Application SETFA, percentage damage”) (Setaria faberi (SETFA) [1]; applied at 125 g/ha) was 5 (5=80-100%), the “PRE Application AMARE, percentage damage on five-point scale” value (“PRE Application AMARE, percentage damage” for short) ([2]; applied at 125 g/ha) was 5 (5=80-100%) and the “PRE Application IPOHE, percentage damage on five-point scale” value (“PRE Application IPOHE, percentage damage” below) ([3]; applied at 125 g/ha) was 5 (5=80-100%). The “PRE Application ECHCG, percentage damage on five-point scale” value (shortened to “PRE Application ECHCG, percentage damage”) ([4]; applied at 125 g/ha) was 5 (5=80-100%), the “PRE Application ABUTH, percentage damage on five-point scale” value (“PRE Application ABUTH, percentage damage” for short) ([5]; applied at 125 g/ha) was 5 (5=80-100%) and the “damage to plant BROTE (100=total damage to plant; 0=no damage to plant)” value (BROTE (Bromus tectorum); 30 g/ha) was 0. The “damage to plant BROTE (100=total damage to plant; 0=no damage to plant)” value (BROTE (Bromus tectorum); 130 g/ha) was 0, the “damage to plant BROTE (100=total damage to plant; 0=no damage to plant)” value (BROTE (Bromus tectorum); 250 g/ha) was 20 and the “damage to plant ABUTH (100=total damage to plant; 0=no damage to plant)” value ([6]; 30 g/ha) was 0. For the same compound, the “damage to plant ABUTH (100=total damage to plant; 0=no damage to plant)” value ([6]; 130 g/ha) was 60, the “damage to plant ABUTH (100=total damage to plant; 0=no damage to plant)” value ([6]; 250 g/ha) was 90 and the “damage to plant ECHCG (100=total damage to plant; 0=no damage to plant)” value ([7]; 30 g/ha) was 20. The “damage to plant ECHCG (100=total damage to plant; 0=no damage to plant)” value ([7]; 130 g/ha) was 70, the “damage to plant ECHCG (100=total damage to plant; 0=no damage to plant)” value ([7]; 250 g/ha) was 90 and the “damage to plant SINAR (100=total damage to plant; 0=no damage to plant)” value (SINAR (Sinapis arvensis); 30 g/ha) was 10. For the same compound, the “damage to plant SINAR (100=total damage to plant; 0=no damage to plant)” value (SINAR (Sinapis arvensis); 130 g/ha) was 60, the “damage to plant SINAR (100=total damage to plant; 0=no damage to plant)” value (SINAR (Sinapis arvensis); 250 g/ha) was 100 and the “POST Application SETFA, percentage damage on five-point scale” value (Setaria faberi (SETFA) [8]; applied at 125 g/ha) was 5 (5=80-100%). For the same compound, the “POST Application AMARE, percentage damage on five-point scale” value ([9]; applied at 125 g/ha) was 5 (5=80-100%), the “POST Application IPOHE, percentage damage on five-point scale” value ([10]; applied at 125 g/ha) was 4 (4=60-79%) and the “POST Application ECHCG, percentage damage on five-point scale” value ([11]; applied at 125 g/ha) was 5 (5=80-100%).
For `COCC(=O)Nc1c(OC(F)(F)F)ccc(C(=O)Nc2nnnn2C)c1Cl` [Compound 1.130], the “PRE Application SETFA, percentage damage” value (Setaria faberi (SETFA) [1]; applied at 500 g/h) was 1 (1=0-19%), the “PRE Application AMARE, percentage damage” value ([2]; applied at 500 g/h) was 5 (5=80-100%) and the “PRE Application IPOHE, percentage damage” value ([3]; applied) was 1 (1=0-19%). The “PRE Application ECHCG, percentage damage” value ([4]; applied at 500 g/h) was 2 (2=20-39%), the “PRE Application ABUTH, percentage damage” value ([5]; applied at 500 g/h) was 4 (4=60-79%) and the “POST Application SETFA, percentage damage on five-point scale” value (Setaria faberi (SETFA) [8]; applied at 500 g/h) was 5 (5=80-100%). For the same compound, the “POST Application AMARE, percentage damage on five-point scale” value ([9]; applied at 500 g/h) was 5 (5=80-100%), the “POST Application IPOHE, percentage damage on five-point scale” value ([10]; applied at 500 g/h) was 4 (4=60-79%) and the “POST Application ECHCG, percentage damage on five-point scale” value ([11]; applied at 500 g/h) was 5 (5=80-100%). For the same compound, the “POST Application ABUTH, percentage damage on five-point scale” value [12] was 5 (5=80-100%).
For `CCn1nnnc1NC(=O)c1ccc(OC(F)F)c(NC(=O)CC2CC2)c1Cl` [Compound 1.131], the “PRE Application SETFA, percentage damage” value (Setaria faberi (SETFA) [1]; applied at 500 g/h) was 1 (1=0-19%), the “PRE Application AMARE, percentage damage” value ([2]; applied at 500 g/h) was 5 (5=80-100%) and the “PRE Application IPOHE, percentage damage” value ([3]; applied) was 1 (1=0-19%). The “PRE Application ECHCG, percentage damage” value ([4]; applied at 500 g/h) was 3 (3=40-59%), the “PRE Application ABUTH, percentage damage” value ([5]; applied at 500 g/h) was 5 (5=80-100%) and the “POST Application SETFA, percentage damage on five-point scale” value (Setaria faberi (SETFA) [8]; applied at 500 g/h) was 4 (4=60-79%). The “POST Application AMARE, percentage damage on five-point scale” value ([9]; applied at 500 g/h) was 5 (5=80-100%), the “POST Application IPOHE, percentage damage on five-point scale” value ([10]; applied at 500 g/h) was 5 (5=80-100%) and the “POST Application ECHCG, percentage damage on five-point scale” value ([11]; applied at 500 g/h) was 5 (5=80-100%). The “POST Application ABUTH, percentage damage on five-point scale” value [12] was 5 (5=80-100%).
With `CCCn1nnnc1NC(=O)c1ccc(OC(F)(F)F)c(NC(=O)c2ccccn2)c1Cl` [Compound 1.132] the “PRE Application SETFA, percentage damage” value (Setaria faberi (SETFA) [1]; applied at 500 g/h) was 1 (1=0-19%), the “PRE Application AMARE, percentage damage” value ([2]; applied at 500 g/h) was 5 (5=80-100%) and the “PRE Application IPOHE, percentage damage” value ([3]; applied) was 4 (4=60-79%). The “PRE Application ECHCG, percentage damage” value ([4]; applied at 500 g/h) was 3 (3=40-59%), the “PRE Application ABUTH, percentage damage” value ([5]; applied at 500 g/h) was 4 (4=60-79%) and the “POST Application SETFA, percentage damage on five-point scale” value (Setaria faberi (SETFA) [8]; applied at 500 g/h) was 5 (5=80-100%). The “POST Application AMARE, percentage damage on five-point scale” value ([9]; applied at 500 g/h) was 5 (5=80-100%), the “POST Application IPOHE, percentage damage on five-point scale” value ([10]; applied at 500 g/h) was 5 (5=80-100%) and the “POST Application ECHCG, percentage damage on five-point scale” value ([11]; applied at 500 g/h) was 5 (5=80-100%). For the same compound, the “POST Application ABUTH, percentage damage on five-point scale” value [12] was 5 (5=80-100%).
